According to BindingDB's records for patent US20250197403 (Achillion Pharmaceuticals, 2025):

Target: Complement factor D (Homo sapiens, UniProt P00746)
Experiment: Human Factor D Assay
Experimental: Human Factor D (purified from human serum, Complement Technology, Inc.) at 80 nM final concentration is incubated with test compound at various concentrations for 5 min at room temperature in 50 mM Tris, 1M NaCl, pH 7.5. A synthetic substrate Z-L-Lys-SBzl and DTNB (Ellman's reagent) are added to final concentrations of 100 μM each. Absorbance at 405 nm (A405) is recorded at 30 second intervals for 30 min using a microplate spectrophotometer. IC50 values are calculated by nonlinear regression of complement Factor D reaction rates as a function of test compound concentration.

Sequence of Complement factor D (P00746 whole entry): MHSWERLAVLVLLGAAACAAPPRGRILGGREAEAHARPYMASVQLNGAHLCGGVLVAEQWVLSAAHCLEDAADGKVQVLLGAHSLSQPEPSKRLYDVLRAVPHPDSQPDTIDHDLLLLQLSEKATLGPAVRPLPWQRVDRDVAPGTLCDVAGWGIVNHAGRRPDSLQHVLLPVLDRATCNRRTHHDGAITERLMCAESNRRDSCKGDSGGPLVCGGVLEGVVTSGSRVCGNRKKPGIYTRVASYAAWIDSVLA

SMILES	IC50 [µM]
CC(=O)c1cn(CC(=O)N2C[C@H]3C[C@H]3[C@H]2C(=O)Nc2nc(C(F)(F)F)ccc2C)c2c(C)cc(-c3cnc4cc(C)nn4c3)cc12 [US20250197403, Compound 1]	< 1
CC(=O)c1cn(CC(=O)N2[C@H](C(=O)Nc3nc(Br)ccc3C3CC3)C[C@@]3(C)C[C@@H]23)c2c(C)cc(-c3cnc(C)nc3)cc12 [US20250197403, Compound 9]	< 1
CC(=O)c1cn(CC(=O)N2[C@H](C(=O)Nc3cncc(C(F)(F)F)n3)C[C@@]3(C)C[C@@H]23)c2c(C)cc(-c3cnc4cc(C)nn4c3)cc12 [US20250197403, Compound 48]	< 1
COCc1ccc(Br)nc1NC(=O)[C@@H]1C[C@@]2(C)C[C@H]2N1C(=O)Cn1cc(C(C)=O)c2cc(-c3ccc4nc(C)nn4c3)cc(C)c21 [US20250197403, Compound 62]	< 1
CC(=O)c1cn(CC(=O)N2[C@H](C(=O)Nc3nc(C(F)(F)F)ccc3C)C[C@@]3(C)C[C@@H]23)c2c(C)cc(-c3cnc4sc(C)nc4c3)cc12 [US20250197403, Compound 70]	< 1
CC(=O)c1cn(CC(=O)N2C[C@@](F)(CF)C[C@H]2C(=O)Nc2nc(C(F)(F)F)ccc2Cl)c2c(C)nc(-c3cnc4cc(C)nn4c3)cc12 [US20250197403, Compound 92]	< 1
